The test system of the series is HSV-1 C-capsids. The experiment in a line: Binding of GFP-HSV-1 C-capsids to nuclei of digitonin-permeabilized Vero cells (SR-SIM). The class given is cell-based. The method, then:
This was verified with a fluorescently labeled nuclear localization signal (NLS), added to purified rat liver nuclei incubated with cytosolic extracts (as a source of soluble import factors) supplemented with an ATP regeneration system, see Supporting Materials for experimental description and S4A Fig. These controls were also reproduced with a digitonin-permeabilized cell assay, which accurately recapitulates capsid-nucleus binding and nuclear import in living cells; see Supporting Materials and data shown in S4B Fig. In agreement with observations in the isolated nuclei system (Fig 3B), we also confirmed via a digitonin-permeabilized cell assay that none of the three compounds interfered with capsid-NPC binding in cells. Attachment of GFP-capsids to nuclei was visualized with SR-SIM (S4C Fig). The addition of WGA prevented capsid binding, showing capsid-NPC binding specificity (S4C Fig).
To obtain cytosolic extracts as a source of soluble import factors, Vero cell monolayers (4 x 10^7 cells) were washed with ice-cold PBS and scraped off the plate into 5 ml of cold PBS. […] The samples were then processed for fluorescence imaging as described above. […]

Where no end group is shown, it is not given here.

Turning to RRRRR [Arg^5+], the “binding of GFP-HSV-1 C-capsids to nuclei of permeabilized cells” value is “not blocked”.
As for `NCCCN(CCCN)CCCCN(CCCN)CCCN` [DAB-Am-4], the “binding of GFP-HSV-1 C-capsids to nuclei of permeabilized cells” value is given as “not blocked”.

Source of the values: PMC7377361, “Pressurized DNA state inside herpes capsids—A novel antiviral target” (PLoS Pathogens, 2020).
